Assays:
[1] = Elution of radiolabeled CSA-138 from hydrogel contact lenses, scintillation counting; type: physicochemical
Description: To decrease the detection limit for CSA-138, we prepared a radiolabeled version of CSA-138 (CSA-138T2), incorporated it into contact lenses, and quantified its elution from lenses using scintillation counting.
Lenses containing 1% CSA-138 were stored in 0.5 mL phosphate buffered saline (PBS) prior to testing. One set of lenses was autoclaved for 45 min before elution studies were performed. For elution studies, lenses were suspended in 2 ml aliquots of PBS, 10% TSB growth medium, 10% TSB growth medium containing 10^6 CFU of Staphylococcus aureus, or 10% TSB growth medium containing 10^6 CFU of Pseudomonas aeruginosa. Corresponding aliquots were exchanged every 24 h, including bacterial inocula. Samples were removed every 24 h and analyzed for the presence of CSA-138 using scintillation counting. A standard curve was generated to correlate counts per minute to concentration of CSA-138. All experiments were performed in triplicate.

P. aeruginosa [2] = assay: MIC of CSA-138 for P. aeruginosa; type: cell-based; conditions: Pseudomonas aeruginosa
[3] = Elution of CSA-138 from hydrogel contact lenses, LC/MS with mass-labeled internal standard; type: physicochemical; conditions: lenses with CSA-138 incorporated at 1%; LC/MS detection limit about 2 μg/ml
Description: To better understand the mechanism by which hydrophobic ceragenin compounds can prevent bacterial colonization, the bonding between CSA-138 and a hydrogel used in contact lenses was evaluated. In a first example, we determined the rate at which CSA-138 elutes from a hydrogel suitable for use in contact lenses. To quantify the amount of ceragenin eluting from the hydrogel, we used LC/MS using a mass-labeled internal standard. However, this method only gave detection limits of about 2 μg/ml, and we were able to effectively kill bacteria at constant elution rates below the detection limit.

P. aeruginosa [4] = conditions: elution from lenses, inocula 10^6 CFU P. aeruginosa; cited from earlier work
S. aureus [5] = assay: MIC of CSA-138 for S. aureus; type: cell-based; conditions: Staphylococcus aureus
S. aureus [6] = conditions: elution from lenses, inocula 10^6 CFU S. aureus; cited from earlier work
microbes = assay: Ability to elute from polymer and kill microbes; conditions: compared with other ceragenins

| Structure (SMILES) | elution in the presence of bacteria ([1]; 10% TSB with 10^6 CFU S. aureus (nine days) or P. aeruginosa (eight days), FIGS. 6 and 7) | elution on the first day ([1]; lenses containing 1% CSA-138, suspended in 2 ml PBS, first day (FIG. 3)) | time until elution of CSA-138 drops below 1 μg/ml ([1]; trend of FIG. 5 extended) | MIC (P. aeruginosa [2]) | time until elution fell below detection limits [3] | prevents colonization (P. aeruginosa [4]) | MIC (S. aureus [5]) | prevents colonization, consecutive days (S. aureus [6]) | ability to elute and kill microbes (microbes) |
| --- | --- | --- | --- | --- | --- | --- | --- | --- | --- |
| CCCCCCCCCCCCCNCCC[C@@H](C)[C@H]1CC[C@H]2[C@@H]3[C@H](OCCCN)C[C@@H]4C[C@H](OCCCN)CC[C@]4(C)[C@H]3C[C@H](OCCCN)[C@]12C [CSA-138] | fluctuated substantially | about 2.2 μg/ml | about 40 days | 1 µg/mL | within five days | 19 days | 0.5 µg/mL | 30 days | – |
| CCCCCCCCCCNCCC[C@@H](C)[C@H]1CC[C@H]2[C@@H]3[C@H](OCCCN)C[C@@H]4C[C@H](OCCCN)CC[C@]4(C)[C@H]3C[C@H](OCCCN)[C@]12C [CSA-136] | – | – | – | – | – | – | – | – | advantageous over CSA-135 |

From patent US9546195B2, “Hydrophobic ceragenin compounds and devices incorporating same” (BRIGHAM YOUNG UNIVERSITY, priority 2011, dated 2017)
